US20140005163A1 (NOVARTIS AG, priority 2010, published 2014)
Converted amounts (≈) assume the structure as drawn.

Experiments:
Solubility at pH 6.8 = format: physicochemical; conditions: pH 6.8, aqueous buffer, thermodynamic from solid; read-out: solubility
In short: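 Solubility was measured at pH 6.8 following the cited Zhou et al. (2007) procedure.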

PI3K alpha = target: T1, PI3K alpha (Homo sapiens, UniProt P42336); assay: PI3K alpha kinase assay (Kinase-Glo luminescence); format: biochemical
T1 construct: p85(iSH2) fusion partner (see partner chain) (N); His tag (C); made in house; host or cells: baculovirus; Tn5 (Trichoplusia ni) or TiniPro insect cells
In short: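 PI3Kα construct EMV B1075 (10 nM final) was preincubated with 10 μg/mL phosphatidylinositol in 10 mM Tris-HCl pH 7.5, 3 mM MgCl2, 50 mM NaCl, 0.05% CHAPS, 1 mM DTT. Reaction started with 1 μM ATP, 60 min at room temperature; remaining ATP measured by Kinase-Glo luminescence. IC50 from 4-parameter logistic fit of 8-point titrations.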

[1] = tested on: PKB Ser473 phosphorylation in Rat1-myr-HA-p110 alpha cells; assay: Reverse protein array assay, PKB Ser473 phosphorylation in Rat1-myr-p110 alpha cells; format: cell-based; conditions: 0.5 h, pAkt Ser473, 30 minutes compound incubation, read-out: p-PKB IC50
In short: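 Cells: Rat1-myr-HA-p110 alpha/beta/delta, seeded ≥20 h. Lysis on ice 10 min; reverse-phase protein array, 4 lysate dilutions; fluorescence read, relative intensity.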

T1 sequence (P42336 with tags, fused parts or gaps limits assumed): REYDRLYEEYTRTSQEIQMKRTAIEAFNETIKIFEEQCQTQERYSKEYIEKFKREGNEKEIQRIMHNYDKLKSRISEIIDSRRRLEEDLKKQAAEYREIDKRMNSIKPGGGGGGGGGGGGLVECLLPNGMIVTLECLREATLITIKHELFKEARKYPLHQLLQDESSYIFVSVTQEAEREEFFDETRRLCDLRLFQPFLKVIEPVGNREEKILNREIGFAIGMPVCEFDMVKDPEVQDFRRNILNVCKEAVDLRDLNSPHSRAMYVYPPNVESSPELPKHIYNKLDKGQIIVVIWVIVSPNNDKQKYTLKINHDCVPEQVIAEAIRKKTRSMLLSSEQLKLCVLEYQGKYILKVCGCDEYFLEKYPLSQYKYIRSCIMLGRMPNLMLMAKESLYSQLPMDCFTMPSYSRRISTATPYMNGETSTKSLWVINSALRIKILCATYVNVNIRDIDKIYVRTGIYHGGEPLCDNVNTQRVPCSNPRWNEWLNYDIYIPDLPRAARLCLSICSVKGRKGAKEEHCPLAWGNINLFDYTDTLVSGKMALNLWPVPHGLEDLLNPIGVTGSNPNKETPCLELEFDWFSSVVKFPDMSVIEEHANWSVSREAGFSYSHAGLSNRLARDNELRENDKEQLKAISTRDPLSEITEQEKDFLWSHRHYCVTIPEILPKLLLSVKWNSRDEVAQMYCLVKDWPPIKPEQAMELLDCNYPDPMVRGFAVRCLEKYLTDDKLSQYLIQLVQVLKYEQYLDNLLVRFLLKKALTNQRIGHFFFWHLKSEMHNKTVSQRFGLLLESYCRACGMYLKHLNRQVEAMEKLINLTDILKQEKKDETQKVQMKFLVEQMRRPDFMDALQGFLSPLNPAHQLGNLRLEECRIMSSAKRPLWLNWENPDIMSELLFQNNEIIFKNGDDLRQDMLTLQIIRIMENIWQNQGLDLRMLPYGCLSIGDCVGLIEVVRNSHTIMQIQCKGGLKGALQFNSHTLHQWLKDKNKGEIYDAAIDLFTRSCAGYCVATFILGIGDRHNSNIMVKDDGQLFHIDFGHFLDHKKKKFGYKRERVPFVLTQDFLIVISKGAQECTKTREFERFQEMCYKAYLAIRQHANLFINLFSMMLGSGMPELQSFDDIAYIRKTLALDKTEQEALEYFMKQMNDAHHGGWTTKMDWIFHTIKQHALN

Row | Compound | solubility (Solubility at pH 6.8) | IC50 (PI3K alpha) | IC50 [1]
1 | COC(=O)c1ccc(-c2ccc3ncc4c(c3c2)n(-c2cn(C)nc2C)c(=O)n4C)cn1 [Example 100, 5-[1-(1,3-Dimethyl-1H-pyrazol-4-yl)-3-methyl-2-oxo-2,3-dihydro-1H-imidazo[4,5-c]quinolin-8-yl]-pyridine-2-carboxylic acid methyl ester] | 12 µg/mL (≈ 28 µM) | 18 nM | 12 nM
2 | COCc1ccc(-c2ccc3ncc4c(c3c2)n(-c2cn(C(C)C)nc2C)c(=O)n4C)cn1 [Example 105, 1-(1-Isopropyl-3-methyl-1H-pyrazol-4-yl)-8-(6-methoxymethyl-pyridin-3-yl)-3-methyl-1,3-dihydro-imidazo[4,5-c]quinolin-2-one] | > 443 µg/mL | 110 nM | 77 nM
3 | Cc1nn(C)cc1-n1c(=O)n(C)c2cnc3ccc(-c4ccc(OCCCO)nc4)cc3c21 [Example 108, 1-(1,3-Dimethyl-1H-pyrazol-4-yl)-8-[6-(3-hydroxy-propoxy)-pyridin-3-yl]-3-methyl-1,3-dihydro-imidazo[4,5-c]quinolin-2-one] | 32 µg/mL (≈ 72 µM) | 132 nM | 134 nM
4 | CNC(=O)c1cc(-c2ccc3ncc4c(c3c2)n(-c2cn(C)nc2C)c(=O)n4C)cnc1OC [Example 125.1, 5-[1-(1,3-Dimethyl-1H-pyrazol-4-yl)-3-methyl-2-oxo-2,3-dihydro-1H-imidazo[4,5-c]quinolin-8-yl]-2-methoxy-N-methyl-nicotinamide] | 6 µg/mL (≈ 13.1 µM) | 28 nM | 75 nM
5 | Cc1nn(C)cc1-n1c(=O)n(C)c2cnc3ccc(-c4ccc(N5CCNCC5)nc4)cc3c21 [Example 126, 1-(1,3-Dimethyl-1H-pyrazol-4-yl)-3-methyl-8-(6-piperazin-1-yl-pyridin-3-yl)-1,3-dihydro-imidazo[4,5-c]quinolin-2-one] | > 455 µg/mL | 51 nM | 141 nM
6 | COc1ncc(-c2ccc3ncc4c(c3c2)n(-c2cn(C)nc2C)c(=O)n4C)cc1N [Example 127, 8-(5-Amino-6-methoxy-pyridin-3-yl)-1-(1,3-dimethyl-1H-pyrazol-4-yl)-3-methyl-1,3-dihydro-imidazo[4,5-c]quinolin-2-one] | 386 µg/mL (≈ 929 µM) | 20 nM | 5 nM
7 | CNc1ncc(-c2ccc3ncc4c(c3c2)n(-c2cn(C(C)C)nc2C)c(=O)n4C)cc1F [Example 141.3, 8-(5-Fluoro-6-methylamino-pyridin-3-yl)-1-(1-isopropyl-3-methyl-1H-pyrazol-4-yl)-3-methyl-1,3-dihydro-imidazo[4,5-c]quinolin-2-one] | 5 µg/mL (≈ 11.2 µM) | 21 nM | 10 nM
8 | Cc1nn(C(C)C)cc1-n1c(=O)n(C)c2cnc3ccc(-c4cnc(N)c(F)c4)cc3c21 [Example 142.3, 8-(6-Amino-5-fluoro-pyridin-3-yl)-1-(1-isopropyl-3-methyl-1H-pyrazol-4-yl)-3-methyl-1,3-dihydro-imidazo[4,5-c]quinolin-2-one] | 5 µg/mL (≈ 11.6 µM) | 25 nM | 10 nM
9 | CNc1ncc(-c2ccc3ncc4c(c3c2)n(-c2c(C)nn(C)c2C)c(=O)n4C)cc1C(F)(F)F [Example 144.1, 3-Methyl-8-(6-methylamino-5-trifluoromethyl-pyridin-3-yl)-1-(1,3,5-trimethyl-1H-pyrazol-4-yl)-1,3-dihydro-imidazo[4,5-c]quinolin-2-one] | > 481 µg/mL | 36 nM | 26 nM
10 | Cc1nn(C)c(C)c1-n1c(=O)n(C)c2cnc3ccc(-c4cnc(N)c(Cl)c4)cc3c21 [Example 148.1, 8-(6-Amino-5-chloro-pyridin-3-yl)-3-methyl-1-(1,3,5-trimethyl-1H-pyrazol-4-yl)-1,3-dihydro-imidazo[4,5-c]quinolin-2-one] | 92 µg/mL (≈ 212 µM) | 26 nM | 63 nM
11 | Cc1nn(C)cc1-n1c(=O)n(C)c2cnc3ccc(-c4cnc(N)c(Cl)c4)cc3c21 [Example 148.2, 8-(6-Amino-5-chloro-pyridin-3-yl)-1-(1,3-dimethyl-1H-pyrazol-4-yl)-3-methyl-1,3-dihydro-imidazo[4,5-c]quinolin-2-one] | 4 µg/mL (≈ 9.53 µM) | 18 nM | < 5 nM
12 | CNc1cc(-c2ccc3ncc4c(c3c2)n(-c2cn(C(C)C)nc2C)c(=O)n4C)cnc1CO [Example 158.2, 8-(6-Hydroxymethyl-5-methylamino-pyridin-3-yl)-1-(1-isopropyl-3-methyl-1H-pyrazol-4-yl)-3-methyl-1,3-dihydro-imidazo[4,5-c]quinolin-2-one] | > 458 µg/mL | 44 nM | 7 nM
13 | Cc1nn(C(C)C)cc1-n1c(=O)n(C)c2cnc3ccc(-c4cnc(N)c(CO)c4)cc3c21 [Example 169.1, 8-(6-Amino-5-hydroxymethyl-pyridin-3-yl)-1-(1-isopropyl-3-methyl-1H-pyrazol-4-yl)-3-methyl-1,3-dihydro-imidazo[4,5-c]quinolin-2-one] | 289 µg/mL (≈ 652 µM) | 24 nM | 27 nM
14 | Cc1nn(C)c(C)c1-n1c(=O)n(C)c2cnc3ccc(-c4cnc(N)c(CO)c4)cc3c21 [Example 169.2, 8-(6-Amino-5-hydroxymethyl-pyridin-3-yl)-3-methyl-1-(1,3,5-trimethyl-1H-pyrazol-4-yl)-1,3-dihydro-imidazo[4,5-c]quinolin-2-one] | > 429 µg/mL | 34 nM | 460 nM
15 | Cc1nn(C)cc1-n1c(=O)n(C)c2cnc3ccc(-c4cncc(NC5CCC5)c4)cc3c21 [Example 172, 8-(5-Cyclobutylamino-pyridin-3-yl)-1-(1,3-dimethyl-1H-pyrazol-4-yl)-3-methyl-1,3-dihydro-imidazo[4,5-c]quinolin-2-one] | 11 µg/mL (≈ 25 µM) | 39 nM | 9 nM
16 | Cc1nn(C)cc1-n1c(=O)n(C)c2cnc3ccc(-c4cncc(N(C)C(C)C)c4)cc3c21 [Example 173, 1-(1,3-Dimethyl-1H-pyrazol-4-yl)-8-[5-(isopropyl-methyl-amino)-pyridin-3-yl]-3-methyl-1,3-dihydro-imidazo[4,5-c]quinolin-2-one] | 8 µg/mL (≈ 18.1 µM) | 23 nM | 16 nM
17 | Cc1nn(C)cc1-n1c(=O)n(C)c2cnc3ccc(-c4cncc(N5CCOCC5)c4)cc3c21 [Example 175.1, 1-(1,3-Dimethyl-1H-pyrazol-4-yl)-3-methyl-8-(5-morpholin-4-yl-pyridin-3-yl)-1,3-dihydro-imidazo[4,5-c]quinolin-2-one] | 35 µg/mL (≈ 76.8 µM) | 66 nM | 17 nM

Stronger by IC50 (PI3K alpha), values ahead:

Row | solubility (Solubility at pH 6.8) | IC50 (PI3K alpha) | IC50 [1] | Compound
18 | 3 µg/mL (≈ 7.76 µM) | 12 nM | 55 nM | COc1ccc(-c2ccc3ncc4[nH]c(=O)n(-c5cn(C)nc5C)c4c3c2)cn1 [Example 109, 1-(1,3-Dimethyl-1H-pyrazol-4-yl)-8-(6-methoxy-pyridin-3-yl)-1,3-dihydro-imidazo[4,5-c]quinolin-2-one]
19 | 3 µg/mL (≈ 7.08 µM) | 12 nM | < 5 nM | Cc1nn(C)cc1-n1c(=O)n(C)c2cnc3ccc(-c4cnc5c(ccn5C)c4)cc3c21 [Example 116, 1-(1,3-Dimethyl-1H-pyrazol-4-yl)-3-methyl-8-(1-methyl-1H-pyrrolo[2,3-b]pyridin-5-yl)-1,3-dihydro-imidazo[4,5-c]quinolin-2-one]
20 | 21 µg/mL (≈ 49.6 µM) | 12 nM | 21 nM | Cc1nn(C)cc1-n1c(=O)n(C)c2cnc3ccc(-c4cnc5ccn(C)c5c4)cc3c21 [Example 129, 1-(1,3-Dimethyl-1H-pyrazol-4-yl)-3-methyl-8-(1-methyl-1H-pyrrolo[3,2-b]pyridin-6-yl)-1,3-dihydro-imidazo[4,5-c]quinolin-2-one]
21 | 73 µg/mL (≈ 165 µM) | 13 nM | 13 nM | CCNc1cc(-c2ccc3ncc4c(c3c2)n(-c2cn(C)nc2C)c(=O)n4C)cnc1CO [Example 155.1, 1-(1,3-Dimethyl-1H-pyrazol-4-yl)-8-(5-ethylamino-6-hydroxymethyl-pyridin-3-yl)-3-methyl-1,3-dihydro-imidazo[4,5-c]quinolin-2-one]
22 | > 458 µg/mL | 14 nM | 5 nM | CCNc1cc(-c2ccc3ncc4c(c3c2)n(-c2cn(CC)nc2C)c(=O)n4C)cnc1CO [Example 155.2, 8-(5-Ethylamino-6-hydroxymethyl-pyridin-3-yl)-1-(1-ethyl-3-methyl-1H-pyrazol-4-yl)-3-methyl-1,3-dihydro-imidazo[4,5-c]quinolin-2-one]
23 | 3 µg/mL (≈ 6.67 µM) | 7 nM | < 5 nM | CNc1cc(-c2ccc3ncc4c(c3c2)n(-c2cn(C)nc2Cl)c(=O)n4C)cnc1CO [Example 158.3, 1-(3-Chloro-1-methyl-1H-pyrazol-4-yl)-8-(6-hydroxymethyl-5-methylamino-pyridin-3-yl)-3-methyl-1,3-dihydro-imidazo[4,5-c]quinolin-2-one]
24 | 24 µg/mL (≈ 58 µM) | 6 nM | < 5 nM | CNc1cc(-c2ccc3ncc4c(c3c2)n(-c2cn(C)nc2C)c(=O)n4C)cnc1C [Example 163, 1-(1,3-Dimethyl-1H-pyrazol-4-yl)-3-methyl-8-(6-methyl-5-methylamino-pyridin-3-yl)-1,3-dihydro-imidazo[4,5-c]quinolin-2-one]
25 | > 442 µg/mL | 7 nM | 6 nM | CCN(C)c1cc(-c2ccc3ncc4c(c3c2)n(-c2cn(C)nc2C)c(=O)n4C)cnc1C [Example 165, 1-(1,3-Dimethyl-1H-pyrazol-4-yl)-8-[5-(ethyl-methyl-amino)-6-methyl-pyridin-3-yl]-3-methyl-1,3-dihydro-imidazo[4,5-c]quinolin-2-one]
